From a compilation of properties of binary mixtures (doi:10.1016/j.molliq.2021.118200)

Assay: xn = mol fraction of the nth substance listed
Settings: 100 kPa

CC(=O)[O-].COCCn1cc[n+](C)c1 + O
Settings | electrical conductivity [S/m] | viscosity [mPa·s]
288.15 K, x1 = 0.8396 | 0.351 | 74.3
288.15 K, x1 = 0.8663 | 0.313 | 76.6
288.15 K, x1 = 0.8945 | 0.278 | 78.6
288.15 K, x1 = 0.9225 | 0.244 | 80.4
288.15 K, x1 = 0.9511 | 0.215 | 82.1
288.15 K, x1 = 1 | 0.162 | 85.1
293.15 K, x1 = 0.8663 | 0.373 | 56.95
293.15 K, x1 = 0.9225 | 0.3 | 60.54
293.15 K, x1 = 0.9511 | 0.268 | 62.23
293.15 K, x1 = 1 | 0.215 | 65.09
298.15 K, x1 = 0.8396 | 0.476 | 41.38
298.15 K, x1 = 0.8663 | 0.437 | 43.06
298.15 K, x1 = 0.8945 | 0.405 | 44.51
298.15 K, x1 = 0.9225 | 0.371 | 45.75
298.15 K, x1 = 0.9511 | 0.342 | 46.93
298.15 K, x1 = 1 | 0.29 | 49.12
303.15 K, x1 = 0.8396 | 0.564 | 28.47
303.15 K, x1 = 0.8663 | 0.529 | –
303.15 K, x1 = 0.9225 | 0.466 | 34.3
303.15 K, x1 = 0.9511 | 0.439 | 35.83
303.15 K, x1 = 1 | 0.39 | 38.77
308.15 K, x1 = 0.8396 | 0.673 | 24.95
308.15 K, x1 = 0.8945 | 0.604 | 26.78
308.15 K, x1 = 0.9225 | 0.572 | 27.6
308.15 K, x1 = 0.9511 | 0.541 | 28.32
308.15 K, x1 = 1 | 0.491 | 29.64
313.15 K, x1 = 0.8396 | 0.807 | 20.97
313.15 K, x1 = 0.8663 | 0.773 | 21.65
313.15 K, x1 = 0.8945 | 0.733 | 22.3
313.15 K, x1 = 0.9225 | 0.698 | 22.87
313.15 K, x1 = 0.9511 | 0.666 | 23.4
313.15 K, x1 = 1 | 0.611 | 24.35
318.15 K, x1 = 0.8396 | 0.963 | 17.28
318.15 K, x1 = 0.8945 | 0.886 | 18.26
318.15 K, x1 = 0.9225 | 0.851 | 18.74
318.15 K, x1 = 0.9511 | 0.814 | 19.18
318.15 K, x1 = 1 | 0.759 | 19.91

CCC(=O)[O-].COCCn1cc[n+](C)c1 + O
Settings | electrical conductivity [S/m] | viscosity [mPa·s]
288.15 K, x1 = 0.8582 | 0.278 | 88.4
288.15 K, x1 = 0.9175 | 0.201 | 104.5
288.15 K, x1 = 0.9479 | 0.169 | 113.9
293.15 K, x1 = 0.8302 | 0.362 | 61.46
293.15 K, x1 = 0.8582 | 0.324 | 66.3
293.15 K, x1 = 0.8879 | 0.289 | 72.1
293.15 K, x1 = 0.9175 | 0.254 | 78.1
293.15 K, x1 = 1 | 0.166 | 93.3
298.15 K, x1 = 0.8582 | 0.387 | 50.5
298.15 K, x1 = 0.8879 | 0.352 | 54.67
298.15 K, x1 = 0.9175 | 0.315 | 59.23
303.15 K, x1 = 0.8302 | 0.523 | 37.29
303.15 K, x1 = 0.8879 | 0.448 | 42.96
303.15 K, x1 = 0.9175 | 0.411 | 46.22
303.15 K, x1 = 0.9479 | 0.378 | 49.63
303.15 K, x1 = 1 | 0.32 | 54.2
308.15 K, x1 = 0.8302 | 0.625 | 29.69
308.15 K, x1 = 0.8582 | 0.584 | 31.71
308.15 K, x1 = 0.8879 | 0.548 | 33.88
308.15 K, x1 = 0.9175 | 0.511 | 36.42
308.15 K, x1 = 0.9479 | 0.479 | 39.09
308.15 K, x1 = 1 | 0.42 | 42.49
313.15 K, x1 = 0.8302 | 0.724 | 24.42
313.15 K, x1 = 0.8582 | 0.687 | 25.86
313.15 K, x1 = 0.8879 | 0.653 | 27.57
313.15 K, x1 = 0.9175 | 0.616 | 29.53
313.15 K, x1 = 1 | 0.532 | 33.96
318.15 K, x1 = 0.8302 | 0.881 | 18.8
318.15 K, x1 = 0.8879 | 0.799 | 21.28
318.15 K, x1 = 0.9175 | 0.759 | 22.93
318.15 K, x1 = 1 | 0.663 | 26.51
